Assay results published in ChEMBL document CHEMBL6134890, “Terminally Symmetric β-Turn Peptides for Multidrug-Resistant Bacterial Infections” (J Med Chem, 2025).
In brackets after ≈: the same amount, converted by molar mass. Bridge positions count the residues as written; N and C are the ends. Square brackets hold non-standard residues; d marks the D form. Peptide text beside a SMILES is read from it. * marks the point of attachment. X1 = CC[C@H](C)CCCCC(=O)*; Dab = NCC[C@H](N)C(=O)O

What was measured:
[1] = system: Staphylococcus aureus; test: Antimicrobial activity against Staphylococcus aureus ATCC 25923 assessed as reduction in bacterial growth by broth dilution method; format: functional
[2] = system: Acinetobacter baumannii; test: Antimicrobial activity against multi-drug resistant Acinetobacter baumannii assessed as reduction in bacterial growth by broth dilution method; format: functional
[3] = system: Escherichia coli; test: Antimicrobial activity against multi-drug resistant Escherichia coli assessed as reduction in bacterial growth by broth dilution method; format: functional
[4] = system: Staphylococcus aureus; test: Antimicrobial activity against multi-drug resistant Staphylococcus aureus assessed as reduction in bacterial growth by broth dilution method; format: functional
[5] = Hemolytic activity in human Red blood cell assessed as hemolysis incubated for 1 hrs by microplate reader based analysis; format: toxicity; conditions: erythrocyte
[6] = system: Enterococcus faecalis; test: Antimicrobial activity against multi-drug resistant Enterococcus faecalis assessed as reduction in bacterial growth by broth dilution method; format: functional
[7] = system: Klebsiella pneumoniae; test: Antimicrobial activity against multi-drug resistant Klebsiella pneumoniae assessed as reduction in bacterial growth by broth dilution method; format: functional
[8] = system: Staphylococcus epidermidis; test: Antimicrobial activity against multi-drug resistant Staphylococcus epidermidis assessed as reduction in bacterial growth by broth dilution method; format: functional
[9] = system: Escherichia coli; test: Antimicrobial activity against Escherichia coli ATCC 25922 assessed as reduction in bacterial growth by broth dilution method; format: functional

Row | SMILES | MIC [1] [µM] | MIC [2] [µM] | MIC [3] [µM] | MIC [4] [µM] | HC10 [5] [µM] | MIC [6] [µM] | MIC [7] [µM] | MIC [8] [µM] | MIC [9] [µM]
1 | CC[C@H](C)[C@H](NC(=O)[C@H](CCCCN)NC(=O)[C@@H](NC(=O)[C@H](CCCCN)NC(=O)[C@@H](NC(=O)[C@@H]1CCCN1C(=O)[C@H](Cc1c[nH]c2ccccc12)NC(=O)[C@H](Cc1c[nH]c2ccccc12)NC(=O)[C@H](Cc1c[nH]c2ccccc12)NC(=O)[C@@H]1CCCN1C(=O)[C@@H](NC(=O)[C@H](CCCCN)NC(=O)[C@@H](NC(=O)[C@H](CCCCN)NC(=O)[C@@H](NC(=O)[C@@H](N)CCCCN)[C@@H](C)CC)[C@@H](C)CC)[C@@H](C)CC)[C@@H](C)CC)[C@@H](C)CC)C(=O)N[C@@H](CCCCN)C(N)=O (H-KIKIKIPWWWPIKIKIK-NH2) | 4 (≈ 8.87 µg/mL) | 64 (≈ 142 µg/mL) | 16 (≈ 35.5 µg/mL) | 8 (≈ 17.7 µg/mL) | 33.38 | 8 (≈ 17.7 µg/mL) | 16 (≈ 35.5 µg/mL) | 8 (≈ 17.7 µg/mL) | 16 (≈ 35.5 µg/mL)
2 | CC[C@H](C)[C@H](N)C(=O)N[C@@H](CCCCN)C(=O)N[C@H](C(=O)N[C@@H](CCCCN)C(=O)N1CCC[C@H]1C(=O)N[C@@H](Cc1c[nH]c2ccccc12)C(=O)N[C@@H](Cc1c[nH]c2ccccc12)C(=O)N[C@@H](Cc1c[nH]c2ccccc12)C(=O)N1CCC[C@H]1C(=O)N[C@@H](CCCCN)C(=O)N[C@H](C(=O)N[C@@H](CCCCN)C(=O)N[C@H](C(N)=O)[C@@H](C)CC)[C@@H](C)CC)[C@@H](C)CC (H-IKIKPWWWPKIKI-NH2) | 8 (≈ 13.9 µg/mL) | 16 (≈ 27.8 µg/mL) | 16 (≈ 27.8 µg/mL) | 8 (≈ 13.9 µg/mL) | > 256 | 16 (≈ 27.8 µg/mL) | 64 (≈ 111 µg/mL) | 16 (≈ 27.8 µg/mL) | 16 (≈ 27.8 µg/mL)
3 | NCCCC[C@H](NC(=O)[C@H](Cc1c[nH]c2ccccc12)NC(=O)[C@H](CCCCN)NC(=O)[C@H](Cc1c[nH]c2ccccc12)NC(=O)[C@H](CCCCN)NC(=O)[C@@H]1CCCN1C(=O)[C@H](Cc1c[nH]c2ccccc12)NC(=O)[C@H](Cc1c[nH]c2ccccc12)NC(=O)[C@H](Cc1c[nH]c2ccccc12)NC(=O)[C@@H]1CCCN1C(=O)[C@H](CCCCN)NC(=O)[C@H](Cc1c[nH]c2ccccc12)NC(=O)[C@H](CCCCN)NC(=O)[C@H](Cc1c[nH]c2ccccc12)NC(=O)[C@@H](N)CCCCN)C(N)=O (H-KWKWKPWWWPKWKWK-NH2) | 4 (≈ 9.14 µg/mL) | 4 (≈ 9.14 µg/mL) | 4 (≈ 9.14 µg/mL) | 4 (≈ 9.14 µg/mL) | 64.03 | 4 (≈ 9.14 µg/mL) | 4 (≈ 9.14 µg/mL) | 4 (≈ 9.14 µg/mL) | 4 (≈ 9.14 µg/mL)
4 | NCCCC[C@H](NC(=O)[C@H](Cc1c[nH]c2ccccc12)NC(=O)[C@H](CCCCN)NC(=O)[C@@H]1CCCN1C(=O)[C@H](Cc1c[nH]c2ccccc12)NC(=O)[C@H](Cc1c[nH]c2ccccc12)NC(=O)[C@H](Cc1c[nH]c2ccccc12)NC(=O)[C@@H]1CCCN1C(=O)[C@H](CCCCN)NC(=O)[C@H](Cc1c[nH]c2ccccc12)NC(=O)[C@H](CCCCN)NC(=O)[C@@H](N)Cc1c[nH]c2ccccc12)C(=O)N[C@@H](Cc1c[nH]c2ccccc12)C(N)=O (H-WKWKPWWWPKWKW-NH2) | 4 (≈ 8.11 µg/mL) | 8 (≈ 16.2 µg/mL) | 8 (≈ 16.2 µg/mL) | 4 (≈ 8.11 µg/mL) | 28.58 | 2 (≈ 4.05 µg/mL) | 8 (≈ 16.2 µg/mL) | 2 (≈ 4.05 µg/mL) | 8 (≈ 16.2 µg/mL)
5 | CC[C@H](C)[C@H](N)C(=O)N[C@@H](CCCCN)C(=O)N[C@H](C(=O)N[C@@H](CCCCN)C(=O)N[C@@H](Cc1ccccc1)C(=O)N1CCC[C@H]1C(=O)N[C@@H](Cc1c[nH]c2ccccc12)C(=O)N[C@@H](Cc1c[nH]c2ccccc12)C(=O)N[C@@H](Cc1c[nH]c2ccccc12)C(=O)N1CCC[C@H]1C(=O)N[C@@H](Cc1ccccc1)C(=O)N[C@@H](CCCCN)C(=O)N[C@H](C(=O)N[C@@H](CCCCN)C(=O)N[C@H](C(N)=O)[C@@H](C)CC)[C@@H](C)CC)[C@@H](C)CC (H-IKIKFPWWWPFKIKI-NH2) | 16 (≈ 32.5 µg/mL) | 16 (≈ 32.5 µg/mL) | 32 (≈ 64.9 µg/mL) | 16 (≈ 32.5 µg/mL) | 9.48 | 16 (≈ 32.5 µg/mL) | 256 (≈ 520 µg/mL) | 16 (≈ 32.5 µg/mL) | 16 (≈ 32.5 µg/mL)
6 | NCCCC[C@H](NC(=O)[C@H](Cc1c[nH]c2ccccc12)NC(=O)[C@H](CCCCN)NC(=O)[C@H](Cc1c[nH]c2ccccc12)NC(=O)[C@H](CCCCN)NC(=O)[C@H](Cc1ccccc1)NC(=O)[C@@H]1CCCN1C(=O)[C@H](Cc1c[nH]c2ccccc12)NC(=O)[C@H](Cc1c[nH]c2ccccc12)NC(=O)[C@H](Cc1c[nH]c2ccccc12)NC(=O)[C@@H]1CCCN1C(=O)[C@H](Cc1ccccc1)NC(=O)[C@H](CCCCN)NC(=O)[C@H](Cc1c[nH]c2ccccc12)NC(=O)[C@H](CCCCN)NC(=O)[C@H](Cc1c[nH]c2ccccc12)NC(=O)[C@@H](N)CCCCN)C(N)=O (H-KWKWKFPWWWPFKWKWK-NH2) | 4 (≈ 10.3 µg/mL) | 8 (≈ 20.6 µg/mL) | 4 (≈ 10.3 µg/mL) | 8 (≈ 20.6 µg/mL) | 2.1 | 8 (≈ 20.6 µg/mL) | 8 (≈ 20.6 µg/mL) | 8 (≈ 20.6 µg/mL) | 8 (≈ 20.6 µg/mL)
7 | CC[C@H](C)[C@H](NC(=O)[C@H](CCCCN)NC(=O)[C@@H](NC(=O)[C@@H]1CCCN1C(=O)[C@H](Cc1c[nH]c2ccccc12)NC(=O)[C@H](Cc1c[nH]c2ccccc12)NC(=O)[C@H](Cc1c[nH]c2ccccc12)NC(=O)[C@@H]1CCCN1C(=O)[C@@H](NC(=O)[C@H](CCCCN)NC(=O)[C@@H](NC(=O)[C@@H](N)CCCCN)[C@@H](C)CC)[C@@H](C)CC)[C@@H](C)CC)C(=O)N[C@@H](CCCCN)C(N)=O (H-KIKIPWWWPIKIK-NH2) | 4 (≈ 6.94 µg/mL) | 16 (≈ 27.8 µg/mL) | 8 (≈ 13.9 µg/mL) | 4 (≈ 6.94 µg/mL) | > 256 | 8 (≈ 13.9 µg/mL) | 32 (≈ 55.5 µg/mL) | 16 (≈ 27.8 µg/mL) | 8 (≈ 13.9 µg/mL)
8 | CC(C)CCCCC(=O)N[C@@H](CCN)C(=O)N[C@H](C(=O)N[C@@H](CCN)C(=O)N[C@H]1CCNC(=O)[C@H]([C@@H](C)O)NC(=O)[C@H](CCN)NC(=O)[C@H](CCN)NC(=O)[C@H](CC(C)C)NC(=O)[C@@H](Cc2ccccc2)NC(=O)[C@H](CCN)NC1=O)[C@@H](C)O.CC[C@H](C)CCCCC(=O)N[C@@H](CCN)C(=O)N[C@H](C(=O)N[C@@H](CCN)C(=O)N[C@H]1CCNC(=O)[C@H]([C@@H](C)O)NC(=O)[C@H](CCN)NC(=O)[C@H](CCN)NC(=O)[C@H](CC(C)C)NC(=O)[C@@H](Cc2ccccc2)NC(=O)[C@H](CCN)NC1=O)[C@@H](C)O (X1-[Dab]T[Dab][Dab][Dab][dF]L[Dab][Dab]T; lactam 4-C) | 16 | 2 | 2 | 16 | – | 128 | 2 | 16 | 2
9 | NCCCC[C@H](NC(=O)[C@H](Cc1c[nH]c2ccccc12)NC(=O)[C@H](CCCCN)NC(=O)[C@H](Cc1ccccc1)NC(=O)[C@@H]1CCCN1C(=O)[C@H](Cc1c[nH]c2ccccc12)NC(=O)[C@H](Cc1c[nH]c2ccccc12)NC(=O)[C@H](Cc1c[nH]c2ccccc12)NC(=O)[C@@H]1CCCN1C(=O)[C@H](Cc1ccccc1)NC(=O)[C@H](CCCCN)NC(=O)[C@H](Cc1c[nH]c2ccccc12)NC(=O)[C@H](CCCCN)NC(=O)[C@@H](N)Cc1c[nH]c2ccccc12)C(=O)N[C@@H](Cc1c[nH]c2ccccc12)C(N)=O (H-WKWKFPWWWPFKWKW-NH2) | 8 (≈ 18.6 µg/mL) | 16 (≈ 37.1 µg/mL) | 128 (≈ 297 µg/mL) | 16 (≈ 37.1 µg/mL) | 6.82 | 16 (≈ 37.1 µg/mL) | 256 (≈ 594 µg/mL) | 16 (≈ 37.1 µg/mL) | 128 (≈ 297 µg/mL)
10 | CC(C)C[C@H](NC(=O)[C@H](CCCCN)NC(=O)[C@H](CC(C)C)NC(=O)[C@H](CCCCN)NC(=O)[C@H](Cc1ccccc1)NC(=O)[C@@H]1CCCN1C(=O)[C@H](Cc1c[nH]c2ccccc12)NC(=O)[C@H](Cc1c[nH]c2ccccc12)NC(=O)[C@H](Cc1c[nH]c2ccccc12)NC(=O)[C@@H]1CCCN1C(=O)[C@H](Cc1ccccc1)NC(=O)[C@H](CCCCN)NC(=O)[C@H](CC(C)C)NC(=O)[C@H](CCCCN)NC(=O)[C@H](CC(C)C)NC(=O)[C@@H](N)CCCCN)C(=O)N[C@@H](CCCCN)C(N)=O (H-KLKLKFPWWWPFKLKLK-NH2) | 8 (≈ 18.3 µg/mL) | 8 (≈ 18.3 µg/mL) | 8 (≈ 18.3 µg/mL) | 4 (≈ 9.14 µg/mL) | 38.84 | 8 (≈ 18.3 µg/mL) | 8 (≈ 18.3 µg/mL) | 4 (≈ 9.14 µg/mL) | 8 (≈ 18.3 µg/mL)
